In the NIST ThermoML archive (doi:10.1021/je200327s):

Experiment: xn = mol fraction of the nth substance listed
Details: 101 kPa, Liquid, Vibrating tube method

c1ccc2c(c1)sc1ccccc12 [dibenzothiophene] + CCCCCCC
298.2 K
Details | mass density [kg/m3]
x1 = 0.0056 | 683.108
x1 = 0.0119 | 686.774
x1 = 0.0176 | 690.099
x1 = 0.0218 | 692.551

c1ccc2c(c1)sc1ccccc12 [dibenzothiophene] + CCCCCCCCCCC
mass density [kg/m3]
Details | x1 = 0.0035 | x1 = 0.0069 | x1 = 0.0087 | x1 = 0.0186 | x1 = 0.0263 | x1 = 0.0286 | x1 = 0.0342 | x1 = 0.0436
298.2 K | 738.065 | 739.235 | 739.863 | 743.359 | – | 746.909 | 748.935 | –
313.2 K | 726.939 | 728.106 | 728.741 | 732.22 | 735.021 | 735.767 | 737.778 | 741.11

Cc1cccc2c1sc1ccccc12 [4-methyldibenzothiophene] + CCCCCCCCCCCC
mass density [kg/m3]
Details | x1 = 0.0062 | x1 = 0.012 | x1 = 0.018 | x1 = 0.0242 | x1 = 0.0302 | x1 = 0.0526 | x1 = 0.0863 | x1 = 0.133 | x1 = 0.2685
298.2 K | 747.197 | 749.098 | 751.069 | 753.104 | 755.131 | 762.606 | 774.082 | 790.24 | –
313.2 K | 736.26 | 738.169 | 740.129 | 742.156 | 744.204 | 751.621 | 763.057 | 777.581 | 827.245

c1ccc2c(c1)sc1ccccc12 [dibenzothiophene] + CCCCCCCCC
mass density [kg/m3]
Details | x1 = 0.0032 | x1 = 0.0057 | x1 = 0.0072 | x1 = 0.0147 | x1 = 0.0216 | x1 = 0.0287 | x1 = 0.0343
298.2 K | 715.374 | 716.447 | 717.097 | 720.427 | 723.475 | 726.668 | 729.068
313.2 K | 703.613 | 704.689 | 705.41 | 708.85 | 711.795 | 715.175 | 717.135

c1ccc2c(c1)sc1ccccc12 [dibenzothiophene] + CCCCCC
298.2 K
Details | mass density [kg/m3]
x1 = 0.0097 | 661.714
x1 = 0.0147 | 665.156
x1 = 0.0174 | 667.026

c1ccc2c(c1)sc1ccccc12 [dibenzothiophene] + CCCCC
298.2 K
Details | mass density [kg/m3]
x1 = 0.0042 | 624.932
x1 = 0.0077 | 627.957
x1 = 0.0112 | 630.962
x1 = 0.0158 | 634.865

c1ccc2c(c1)sc1ccccc12 [dibenzothiophene] + CC(C)CC(C)(C)C
mass density [kg/m3]
Details | x1 = 0.0025 | x1 = 0.003 | x1 = 0.005 | x1 = 0.0063 | x1 = 0.0127 | x1 = 0.0149
298.2 K | 689.019 | – | 690.292 | – | 694.21 | 695.329
313.2 K | 676.548 | 676.845 | 677.841 | 678.505 | – | 683.13

c1ccc2c(c1)sc1ccccc12 [dibenzothiophene] + CCCCCCCCCC
mass density [kg/m3]
Details | x1 = 0.0034 | x1 = 0.0061 | x1 = 0.0082 | x1 = 0.0162 | x1 = 0.0259 | x1 = 0.0314
298.2 K | 727.461 | 728.541 | 729.331 | 732.459 | 736.262 | 738.412
313.2 K | 716.064 | 717.143 | 717.957 | 721.088 | 724.901 | 727.044

c1ccc2c(c1)sc1ccccc12 [dibenzothiophene] + C1CCCCC1
298.2 K
Details | mass density [kg/m3]
x1 = 0.0025 | 775.392
x1 = 0.0045 | 776.667
x1 = 0.0114 | 780.726
x1 = 0.0224 | 787.439
